Patent US5242938A, “Derivatives of virginiamycin M1” (Merck & Co., Inc., priority 1992, dated 1993)
Converted amounts (≈) assume the structure as drawn. Read-outs that look alike come from different tables or passages of the source.

Tests used:
[1] = target: T1, CCK-B (guinea pig cortex) (Cavia porcellus, UniProt H0VZC5); test: [125I]BHCCK-8 radioligand binding, guinea pig cortical preparation; conditions: read-out: CCK binding inhibition - IC50, [125I]BHCCK
T1 construct: guinea pig cortical preparations; from tissue; host or cells: guinea pig brain cortex membranes
T1 sequence (H0VZC5 1-426): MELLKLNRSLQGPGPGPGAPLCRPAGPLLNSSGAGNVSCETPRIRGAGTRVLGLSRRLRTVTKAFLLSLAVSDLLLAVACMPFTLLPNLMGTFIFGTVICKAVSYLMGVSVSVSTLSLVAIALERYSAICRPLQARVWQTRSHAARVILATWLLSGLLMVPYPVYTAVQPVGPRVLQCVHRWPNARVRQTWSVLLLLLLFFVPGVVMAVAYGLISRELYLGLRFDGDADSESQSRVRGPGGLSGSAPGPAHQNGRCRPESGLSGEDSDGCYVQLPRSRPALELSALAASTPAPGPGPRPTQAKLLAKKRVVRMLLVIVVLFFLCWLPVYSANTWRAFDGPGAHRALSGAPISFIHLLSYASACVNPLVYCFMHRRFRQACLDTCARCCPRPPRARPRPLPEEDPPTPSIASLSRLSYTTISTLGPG
Experimental: (§1) The resulting supernatant was re-spun at 20,000×g for 20 minutes. […] Incubations were for 40 minutes at 4° C. and were terminated by filtration and washing with ice cold 100 mM saline. […] Incubations were for 30 minutes at room temperature and were terminated by filtration over GF/C filters and washing with 100 mM NaCl.

[2] = target: T1, CCK-B (guinea pig cortex); test: [3H]L-365,260 CCK-B selective antagonist ligand binding, brain membranes; conditions: for IC50: read-out: CCK binding inhibition - IC50, [3H]L-365,260
Experimental: as §1

CCK-A (rat pancreas) [3] = target: T2, CCK-A (rat pancreas) (Rattus norvegicus, UniProt P30551); test: [125I]BHCCK-8 radioligand binding, rat pancreatic preparation; conditions: read-out: CCK binding inhibition - IC50, [125I]BHCCK
T2 construct: from tissue; host or cells: rat pancreas
T2 sequence (P30551 1-444): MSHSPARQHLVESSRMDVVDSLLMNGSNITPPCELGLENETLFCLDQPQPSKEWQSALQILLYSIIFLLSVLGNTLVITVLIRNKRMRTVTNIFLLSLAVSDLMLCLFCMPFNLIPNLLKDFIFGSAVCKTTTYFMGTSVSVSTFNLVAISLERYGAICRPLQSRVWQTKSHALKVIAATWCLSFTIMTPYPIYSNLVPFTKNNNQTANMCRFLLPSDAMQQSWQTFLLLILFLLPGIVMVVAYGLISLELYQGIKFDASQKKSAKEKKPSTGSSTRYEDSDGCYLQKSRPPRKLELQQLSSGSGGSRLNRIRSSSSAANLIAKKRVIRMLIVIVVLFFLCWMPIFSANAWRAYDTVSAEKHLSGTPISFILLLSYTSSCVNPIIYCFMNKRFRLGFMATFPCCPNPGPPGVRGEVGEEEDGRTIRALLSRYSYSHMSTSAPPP
Experimental: as §1

CCK-A (rat pancreas) [4] = target: T2, CCK-A (rat pancreas); test: [3H]L-364,718 CCK-A selective antagonist ligand binding, pancreas; conditions: read-out: CCK binding inhibition - IC50, [3H]L-364,718
Experimental: as §1

Bacillus sp. (Mb 633) = test: Agar diffusion disc assay, Baci 633; type: cell-based; conditions: Bacillus, 18 h
Experimental: (§2) Cultures employed in evaluating antimicrobial activity included plant pathogens, human and animal opportunistic pathogens and selected laboratory strains having specific-antibiotic sensitivities or chromosomal or R-plasmid-mediated resistances. […] The agar diffusion MIC's were determined using the method described by Barry in Anitbiotics in Laboratory Medicine, 2nd Ed., Ed. V. Lorian, pp. 1-63, William & Wilkins, Baltimore, 1986. Each test compound was dissolved in methanol to a concentration of 1 mg/ml. Serial dilutions of these compounds were also made to determine an agar diffusion MIC. 20 μl of each dilution was pipetted on to 6 mm paper discs, air dried and placed onto the surface of an agar plate seeded with the appropriate bacteria (~10^6 cfu). Seeded agar plates were incubated overnight (~18 hours) at 25° C. Zone sizes were measured to the nearest mm. Each compound was tested in triplicate and the results shown represent the mean.

[5] = test system: Staphylococcus aureus (Mb 108, ATCC 6538P); test: Agar diffusion disc assay, Sta 108; type: cell-based; conditions: Staphylococcus aureus, ATCC6538P, 18 h
Experimental: as §2

[6] = test system: Bacillus subtilis (Mb 964, ATCC 6633); test: Agar diffusion disc assay, Subt 964; type: cell-based; conditions: Bacillus subtilis, ATCC6633, 18 h, read-out: Inhibition zone diameter, Subt 964
Experimental: as §2

[7] = test system: Micrococcus luteus (Mb 1101, ATCC 9341); test: Agar diffusion disc assay, Micr 1101; type: cell-based
Experimental: as §2

[8] = test system: Staphylococcus aureus (Mb 2983); test: Agar diffusion disc assay, Sta 2983; type: cell-based; conditions: Staphylococcus aureus, 18 h
Experimental: as §2

[9] = test system: Corynebacterium pseudodiphtheriticum (Mb 261, ATCC 9742); test: Agar diffusion disc assay, Cory 261; type: cell-based; conditions: Corynebacterium pseudodiphtheriticum, ATCC9742, 18 h
Experimental: as §2

[10] = test system: Streptococcus faecium (Mb 2820); test: Agar diffusion disc assay, Str 2820; type: cell-based; conditions: Enterococcus faecium, 18 h
Experimental: as §2

[11] = test system: Streptococcus agalactiae (Mb 2875); test: Agar diffusion disc assay, Str 2875; type: cell-based; conditions: Streptococcus agalactiae, 18 h
Experimental: as §2

[12] = test system: Salmonella gallinarum (Mb 1287); test: Agar diffusion disc assay, Salm 1287; type: cell-based; conditions: Salmonella enterica, GALLINARUM, 18 h, read-out: Inhibition zone diameter, Salm 1287
Experimental: as §2

[13] = test system: Escherichia coli (Mb 1418); test: Agar diffusion disc assay, Coli 1418; type: cell-based; conditions: Escherichia coli, 18 h
Experimental: as §2

[14] = test system: Pseudomonas stutzeri (Mb 1231, ATCC 11607); test: Agar diffusion disc assay, Pseu 1231; type: cell-based; conditions: Stutzerimonas stutzeri, ATCC11607, 18 h
Experimental: as §2

[15] = test system: En terobacter aergenes (Mb 835); test: Agar diffusion disc assay, Ent 835; type: cell-based; conditions: 18 h, read-out: Inhibition zone diameter, Ent 835
Experimental: as §2

[16] = @ 20 g/disc, read-out: Inhibition zone diameter, Sta 108
[17] = Micrococcus luteus, ATCC9341, 18 h; @ 20 g/disc; read-out: Inhibition zone diameter, Micr 1101
[18] = Micrococcus luteus, ATCC9341, 18 h; read-out: Agar Diffusion MIC versus Micrococcus luteus
[19] = Micrococcus luteus, ATCC9341; 2.50 μg/disc; 25° C., ~18 hours; read-out: Mean of triplicate zone size versus Micrococcus luteus
[20] = Micrococcus luteus, ATCC9341; 5.00 μg/disc; 25° C., ~18 hours; read-out: Mean of triplicate zone size versus Micrococcus luteus
[21] = Micrococcus luteus, ATCC9341; 10.0 μg/disc; 25° C., ~18 hours; read-out: Mean of triplicate zone size versus Micrococcus luteus
[22] = Micrococcus luteus, ATCC9341; 20.0 μg/disc; 25° C., ~18 hours; read-out: Mean of triplicate zone size versus Micrococcus luteus
[23] = @ 20 g/disc, read-out: Inhibition zone diameter, Sta 2983
[24] = @ 20 g/disc, read-out: Inhibition zone diameter, Cory 261
[25] = @ 20 g/disc, read-out: Inhibition zone diameter, Str 2820
[26] = @ 20 g/disc, read-out: Inhibition zone diameter, Str 2875
[27] = @ 20 g/disc, read-out: Inhibition zone diameter, Coli 1418
[28] = @ 20 g/disc, read-out: Inhibition zone diameter, Pseu 1231
[29] = @ 20 g/disc, read-out: Inhibition zone diameter, Baci 633

Row | SMILES | IC50 [1] | A.R. = agonist ratio = IC50([3H]L365,260)/IC50([125I]CCK) [2] | IC50 [2] | IC50 (CCK-A (rat pancreas) [3]) | IC50 (CCK-A (rat pancreas) [4]) | zone of inhibition at 20 µg/disc [5, 16] | zone of inhibition at 20 µg/disc ([6]; @ 20 g/disc) | zone of inhibition at 20 µg/disc [7, 17] | MIC [7, 18] | zone of inhibition at 2.5 µg/disc [7, 19] | zone of inhibition at 5 µg/disc [7, 20] | zone of inhibition at 10 µg/disc [7, 21] | zone of inhibition at 20 µg/disc [7, 22] | zone of inhibition at 20 µg/disc [8, 23] | zone of inhibition at 20 µg/disc [9, 24] | zone of inhibition at 20 µg/disc [10, 25] | zone of inhibition at 20 µg/disc [11, 26] | zone of inhibition at 20 µg/disc ([12]; @ 20 g/disc) | zone of inhibition at 20 µg/disc [13, 27] | zone of inhibition at 20 µg/disc [14, 28] | further results
1 | CCC(=O)O[C@@H]1/C=C(C)/C=C/CNC(=O)/C=C/[C@@H](C)[C@@H](C(C)C)OC(=O)C2=CCCN2C(=O)c2coc(n2)CC(=O)C1 [Example 3] | 600 nM | 2 | 1000 nM | > 3000 nM | > 3000 nM | 0 mm | 21 mm | 0 mm | 2.51 µM (≈ 1.46 µg/mL) | 7 mm | 13 mm | 17 mm | 19 mm | 12 mm | 0 mm | 0 mm | 0 mm | 0 mm | 0 mm | 0 mm | zone of inhibition at 20 µg/disc (Bacillus sp. (Mb 633); read-out: Inhibition zone diameter, Baci 633, @ 20 g/disc): 11 mm; zone of inhibition at 20 µg/disc ([15]; @ 20 g/disc): 0 mm
2 | CCCCC(=O)O[C@@H]1/C=C(C)/C=C/CNC(=O)/C=C/[C@@H](C)[C@@H](C(C)C)OC(=O)C2=CCCN2C(=O)c2coc(n2)CC(=O)C1 [Example 4] | 500 nM | 2 | 1200 nM | > 3000 nM | > 3000 nM | 0 mm | 0 mm | 25 mm | 0.54 µM (≈ 0.329 µg/mL) | 16 mm | 19 mm | 21 mm | 22 mm | 0 mm | 0 mm | 0 mm | 0 mm | 0 mm | 0 mm | 0 mm | zone of inhibition at 20 µg/disc (Bacillus sp. (Mb 633); [29]): 0 mm; zone of inhibition at 1.25 µg/disc ([7]; Micrococcus luteus, ATCC9341; 1.25 μg/disc; 25° C., ~18 hours; read-out: Mean of triplicate zone size versus Micrococcus luteus): 12 mm; zone of inhibition at 20 µg/disc ([15]; @ 20 g/disc): 0 mm
3 | CC1=C\[C@@H](OC(=O)Cc2ccccc2)CC(=O)Cc2nc(co2)C(=O)N2CCC=C2C(=O)O[C@H](C(C)C)[C@H](C)/C=C/C(=O)NC\C=C\1 [Example 5] | 600 nM | ~ 10 | > 3000 nM | > 3000 nM | > 3000 nM | – | – | – | – | – | – | – | – | – | – | – | – | – | – | – | percentage in parentheses beside >3.0, [3H]L-365,260 (inhibition at top concentration, not defined) ([2]; beside IC50 >3.0): 40%; zone of inhibition at 20 µg/disc (Bacillus sp. (Mb 633); [29]): 0 mm; zone of inhibition at 20 µg/disc ([5]; read-out: Inhibition zone diameter, Sta 108, @ 20 g/disc): 0 mm; zone of inhibition at 20 µg/disc [6]: 0 mm; MIC ([7]; Micrococcus luteus, ATCC9341, 18 h, read-out: Agar Diffusion MIC versus Micrococcus luteus): 0.41 µM (≈ 0.264 µg/mL); zone of inhibition at 20 µg/disc ([7]; Micrococcus luteus, ATCC9341, 18 h, read-out: Inhibition zone diameter, Micr 1101, @ 20 g/disc): 12 mm; zone of inhibition at 5 µg/disc ([7]; Micrococcus luteus, ATCC9341, 18 h, read-out: Mean of triplicate zone size versus Micrococcus luteus, 5.00 μg/disc; 25° C., ~18 hours): 10 mm; zone of inhibition at 20 µg/disc ([7]; Micrococcus luteus, ATCC9341, 18 h, read-out: Mean of triplicate zone size versus Micrococcus luteus, 20.0 μg/disc; 25° C., ~18 hours): 13 mm; zone of inhibition at 40 µg/disc ([7]; Micrococcus luteus, ATCC9341, 18 h, read-out: Mean of triplicate zone size versus Micrococcus luteus, 40.0 μg/disc; 25° C., ~18 hours): 14 mm; zone of inhibition at 80 µg/disc ([7]; Micrococcus luteus, ATCC9341, 18 h, read-out: Mean of triplicate zone size versus Micrococcus luteus, 80.0 μg/disc; 25° C., ~18 hours): 14 mm; zone of inhibition at 20 µg/disc ([8]; read-out: Inhibition zone diameter, Sta 2983, @ 20 g/disc): 0 mm; zone of inhibition at 20 µg/disc ([9]; read-out: Inhibition zone diameter, Cory 261, @ 20 g/disc): 0 mm; zone of inhibition at 20 µg/disc ([10]; read-out: Inhibition zone diameter, Str 2820, @ 20 g/disc): 0 mm; zone of inhibition at 20 µg/disc ([11]; read-out: Inhibition zone diameter, Str 2875, @ 20 g/disc): 0 mm; zone of inhibition at 20 µg/disc [12]: 0 mm; zone of inhibition at 20 µg/disc ([13]; read-out: Inhibition zone diameter, Coli 1418, @ 20 g/disc): 0 mm; zone of inhibition at 20 µg/disc ([14]; read-out: Inhibition zone diameter, Pseu 1231, @ 20 g/disc): 0 mm; zone of inhibition at 20 µg/disc [15]: 0 mm
